Measurements published in US7732420B2, “Combinations of transfection lipids exhibiting increased transfection efficiencies” (Northwestern University, priority 2003, dated 2010).

Assays:
[1] = tested on: human umbilical artery endothelial cells (HUAECs); assay: Transfection of HUAEC with lipoplexes, β-galactosidase expression; type: cell-based; conditions: lipid used individually
Experimental: The cells were seeded in 96-well plates at 24 hours before transfection at densities to give about 80% confluence at the time of transfection. Chloroform solutions of EDLPC with EDOPC and EDLPC with EDMPC were mixed at the different ratios and then chloroform was removed under N2 stream and vacuum. The lipid mixtures were hydrated in HBSS at 1 mg/ml to form liposomes. Liposomes and plasmid DNA were diluted in OptiMEM to 80 μg/ml for lipid and to 20 μg/ml for DNA, and liposomes were pipetted into an equal volume of plasmid DNA solution at a 4:1 weight ratio and mixed gently. The resultant DNA (plasmid with β-galactosidase marker gene)—lipid complexes were incubated at room temperature for 15 min and then added to the cells that were either in medium lacking serum (black bars) or medium containing 5% serum (gray bars). The lipoplexes had 35% (lipoid) excess positive over negative (DNA) charge. Cells were assayed for β-galactosidase expression 24 hours after transfection. Data represent the mean±S.D. of a representative experiment performed in quadruplicate. ˜20,000 fluorescence units corresponded approximately to 0.1 milliunit of β-galactosidase.
Cells were treated with DNA-lipid complex for 2 h in the absence (“no serum”) or presence of serum (“serum”) and then washed with HBSS and supplemented with fresh culture medium. Data represent the mean±S.D. of a representative experiment performed in quadruplicate.
Cells were treated with DNA-lipid complex for 2 h in the absence (“no serum”) or presence of 5% normal serum (“normal serum”) or 5% delipidated serum (“delipidated serum”) and then washed with HBSS and supplemented with fresh regular culture medium. Data represent the mean±S.D. of a representative experiment performed in quadruplicate.
Conditions were identical with those described in FIG. 1 except that different lipoid mixtures were used. Ditetradecyldimethyammonium (di C 14 substituted quaternary ammonium) was mixed with dioctadecylammonium (di C 18 quaternary ammonium).

HUAECs = assay: Intracellular distribution of fluorescent lipid and oligonucleotide of lipoplexes; type: cell-based, human
Experimental: Lipoplexes were labeled with a fluoresce in derivative of a double-stranded dodecameric oligonucleotide. Cells were incubated with the resulting lipoplexes in the presence of serum for 2 h and imaged under a fluorescence microscope at 2 h later after being washed with HBSS.
In order to determine if this pattern of fusion is also observed within cells (e.g., the mixture is more prone to fuse with endosomal membranes facilitating escape of DNA from endosomal degradation and nuclei entrance) the intracellular distribution of fluorescent lipid and oligonucleotide in EDOPC and EDLPC/EDOPC (60/40) lipoplexes was investigated. […] Lipoplexes were labeled with a fluorescein derivative of a double-stranded dodecameric oligonucleotide. Cells were incubated with the resulting lipoplexes in the presence of serum for 2 h and imaged under a fluorescence microscope after being washed in HBSS. […] Similar images were obtained with fluorescent plasmid DNA, although the fluorescence of the nucleus was less intense.

Row | Compound | transfection activity of the individual lipid [1] | intracellular distribution of lipid (HUAECs; fluorescent lipid in lipoplexes) | intracellular distribution of oligonucleotide (HUAECs; fluorescent oligonucleotide in lipoplexes, in the presence of serum)
1 | CCCCCCCCCCCC(=O)OC[C@H](COP(=O)(OCC)OCC[N+](C)(C)C)OC(=O)CCCCCCCCCCC (some centres unmarked) [EDLPC, 1,2-dilauroyl-sn-glycero-3-ethylphosphocholine] | quite weak transfection reagents |  | 
2 | CCCCCCCCCCCCCC(=O)OC[C@H](COP(=O)(OCC)OCC[N+](C)(C)C)OC(=O)CCCCCCCCCCCCC (some centres unmarked) [EDMPC, 1,2-dimyristol-sn-glycero-3-ethylphosphocholine] | quite weak transfection reagents |  | 
3 | CCCCCCCC/C=C\CCCCCCCC(=O)OC[C@@H](COP(=O)(OCC)OCC[N+](C)(C)C)OC(=O)CCCCCCC/C=C\CCCCCCCC (some centres unmarked) [EDOPC, 1,2-dioleoyl-sn-glycero-3-ethylphosphocholine] | quite weak transfection reagents | remained in the cytoplasm for at least 20 hours | remained in the cytoplasm for at least 20 hours
